In ChEMBL document CHEMBL3885861, “Open TG-GATES”:

Organism: Rattus norvegicus
Assay: Open TG-GATES - Regimen: Daily Repeat
Type: toxicity, organism-based, Sprague-Dawley
Set-up: regimen Daily Repeat, gender Male, age 6 weeks
Conditions: in vivo, po, route gavage; for APTT / Bas / Eos / Fbg / Hb / Ht / Lym / MCH / MCHC / MCV / Mono / Neu / PT / Plat / RBC / Ret / WBC: tissue Blood; for KIDNEY_L / KIDNEY_R / KIDNEY_TOTAL: tissue Kidney; for LIVER: tissue Liver; for A/G / ALP / ALT / AST / BUN / CRE / Ca / Cl / DBIL / GLC / IP / K / LDH / Na / PL / RALB / TBIL / TC / TG / TP / gamma-GTP: tissue Plasma
[1] = 300 mg/kg, 72 h, dose level Middle, time 3 day
[2] = 300 mg/kg, […], dose level Middle, time 7 day
[3] = 300 mg/kg, […], dose level Middle, time 14 day
[4] = 300 mg/kg, […], dose level Middle, time 28 day
[5] = 1000 mg/kg, 72 h, dose level High, time 3 day
[6] = 1000 mg/kg, […], dose level High, time 7 day
[7] = 1000 mg/kg, […], dose level High, time 14 day
[8] = 1000 mg/kg, […], dose level High, time 28 day

## CCN1CCCC1CNC(=O)c1cc(S(N)(=O)=O)ccc1OC (centres undefined) [SULPIRIDE]
[1]
  TERMINAL_BW: 234.7 g
  APTT: 16.7 s
  Bas: 0%
  Eos: 1%
  Fbg: 278.2 mg/dL
  Hb: 13.4 g/dL
  Ht: 40.9%
  Lym: 78.8%
  MCH: 20.6 pg
  MCHC: 32.8%
  MCV: 62.7 fL
  Mono: 3.4%
  Neu: 16.2%
  PT: 13.1 s
  Plat: 118.8 x10_4/uL
  RBC: 653.4 x10_4/ul
  Ret: 6.5%
  WBC: 94.6 x10_2/uL
  KIDNEY_L: 1 g
  KIDNEY_R: 1 g
  KIDNEY_TOTAL: 2.1 g
  LIVER: 11.7 g
  A/G: 0.9
  ALP: 1582.2 IU/L
  ALT: 44 IU/L
  AST: 65.8 IU/L
  BUN: 14.6 mg/dL
  CRE: 0.2 mg/dL
  Ca: 11.1 mg/dL
  Cl: 103.2 meq/L
  DBIL: 0.01 mg/dL
  GLC: 182 mg/dL
  IP: 8 mg/dL
  K: 4.4 meq/L
  LDH: 78.2 IU/L
  Na: 139.6 meq/L
  PL: 147.8 mg/dL
  RALB: 2.7 g/dL
  TBIL: 0.056 mg/dL
  TC: 78.4 mg/dL
  TG: 92.8 mg/dL
  TP: 5.7 g/dL
  gamma-GTP: 1 IU/L
[2]
  TERMINAL_BW: 265.3 g
  APTT: 16.9 s
  Bas: 0%
  Eos: 1%
  Fbg: 297.2 mg/dL
  Hb: 13.8 g/dL
  Ht: 41.8%
  Lym: 81.8%
  MCH: 20 pg
  MCHC: 33%
  MCV: 60.4 fL
  Mono: 2.2%
  Neu: 14.4%
  PT: 13.1 s
  Plat: 123.9 x10_4/uL
  RBC: 692.4 x10_4/ul
  Ret: 4.9%
  WBC: 113 x10_2/uL
  KIDNEY_L: 1.1 g
  KIDNEY_R: 1.1 g
  KIDNEY_TOTAL: 2.1 g
  LIVER: 12.5 g
  A/G: 0.8
  ALP: 1497.6 IU/L
  ALT: 46.8 IU/L
  AST: 65.8 IU/L
  BUN: 17 mg/dL
  CRE: 0.2 mg/dL
  Ca: 11 mg/dL
  Cl: 104.2 meq/L
  DBIL: 0.01 mg/dL
  GLC: 182.2 mg/dL
  IP: 8.1 mg/dL
  K: 4.2 meq/L
  LDH: 54.4 IU/L
  Na: 141.6 meq/L
  PL: 143 mg/dL
  RALB: 2.6 g/dL
  TBIL: 0.052 mg/dL
  TC: 70.4 mg/dL
  TG: 114.4 mg/dL
  TP: 5.8 g/dL
  gamma-GTP: 1 IU/L
[3]
  TERMINAL_BW: 329.3 g
  APTT: 16.8 s
  Bas: 0.2%
  Eos: 1%
  Fbg: 295.2 mg/dL
  Hb: 14.7 g/dL
  Ht: 44.1%
  Lym: 78.4%
  MCH: 20 pg
  MCHC: 33.4%
  MCV: 60 fL
  Mono: 2.2%
  Neu: 17.2%
  PT: 13.2 s
  Plat: 121.1 x10_4/uL
  RBC: 736 x10_4/ul
  Ret: 4.1%
  WBC: 102.3 x10_2/uL
  KIDNEY_L: 1.3 g
  KIDNEY_R: 1.2 g
  KIDNEY_TOTAL: 2.5 g
  LIVER: 14.2 g
  A/G: 0.9
  ALP: 1350 IU/L
  ALT: 37.4 IU/L
  AST: 62.8 IU/L
  BUN: 16 mg/dL
  CRE: 0.2 mg/dL
  Ca: 11.1 mg/dL
  Cl: 103 meq/L
  DBIL: 0.014 mg/dL
  GLC: 188.8 mg/dL
  IP: 7.8 mg/dL
  K: 3.9 meq/L
  LDH: 50.6 IU/L
  Na: 140.6 meq/L
  PL: 145.2 mg/dL
  RALB: 2.7 g/dL
  TBIL: 0.052 mg/dL
  TC: 71.8 mg/dL
  TG: 109 mg/dL
  TP: 5.8 g/dL
  gamma-GTP: 1 IU/L
[4]
  TERMINAL_BW: 375.2 g
  APTT: 17.4 s
  Bas: 0.2%
  Eos: 1.2%
  Fbg: 265 mg/dL
  Hb: 15.8 g/dL
  Ht: 45.8%
  Lym: 76.4%
  MCH: 19.4 pg
  MCHC: 34.5%
  MCV: 56.1 fL
  Mono: 1.8%
  Neu: 20%
  PT: 13.4 s
  Plat: 114.4 x10_4/uL
  RBC: 817 x10_4/ul
  Ret: 2.1%
  WBC: 109.3 x10_2/uL
  KIDNEY_L: 1.3 g
  KIDNEY_R: 1.4 g
  KIDNEY_TOTAL: 2.7 g
  LIVER: 14 g
  A/G: 0.8
  ALP: 1073.6 IU/L
  ALT: 43.8 IU/L
  AST: 65.2 IU/L
  BUN: 17 mg/dL
  CRE: 0.2 mg/dL
  Ca: 10.6 mg/dL
  Cl: 105.2 meq/L
  DBIL: 0.006 mg/dL
  GLC: 184.4 mg/dL
  IP: 6.5 mg/dL
  K: 3.8 meq/L
  LDH: 56.2 IU/L
  Na: 142 meq/L
  PL: 125.4 mg/dL
  RALB: 2.7 g/dL
  TBIL: 0.062 mg/dL
  TC: 63.2 mg/dL
  TG: 84.4 mg/dL
  TP: 6.1 g/dL
  gamma-GTP: 1 IU/L
[5]
  TERMINAL_BW: 230.5 g
  APTT: 16.8 s
  Bas: 0%
  Eos: 1.4%
  Fbg: 274.2 mg/dL
  Hb: 14.1 g/dL
  Ht: 42.6%
  Lym: 74.8%
  MCH: 20.7 pg
  MCHC: 33.1%
  MCV: 62.5 fL
  Mono: 2.8%
  Neu: 20.6%
  PT: 13.2 s
  Plat: 128.6 x10_4/uL
  RBC: 682.6 x10_4/ul
  Ret: 4.8%
  WBC: 104.1 x10_2/uL
  KIDNEY_L: 1 g
  KIDNEY_R: 1 g
  KIDNEY_TOTAL: 2 g
  LIVER: 11.1 g
  A/G: 0.8
  ALP: 1652 IU/L
  ALT: 49.2 IU/L
  AST: 62.4 IU/L
  BUN: 16.4 mg/dL
  CRE: 0.2 mg/dL
  Ca: 11.3 mg/dL
  Cl: 103.4 meq/L
  DBIL: 0.01 mg/dL
  GLC: 174.6 mg/dL
  IP: 8.3 mg/dL
  K: 4.5 meq/L
  LDH: 73.8 IU/L
  Na: 140 meq/L
  PL: 161 mg/dL
  RALB: 2.7 g/dL
  TBIL: 0.056 mg/dL
  TC: 82.2 mg/dL
  TG: 112 mg/dL
  TP: 5.7 g/dL
  gamma-GTP: 1 IU/L
[6]
  TERMINAL_BW: 262.7 g
  APTT: 17.8 s
  Bas: 0%
  Eos: 1.2%
  Fbg: 288 mg/dL
  Hb: 14 g/dL
  Ht: 42.2%
  Lym: 76.6%
  MCH: 20.8 pg
  MCHC: 33.3%
  MCV: 62.6 fL
  Mono: 3.2%
  Neu: 18.6%
  PT: 13.3 s
  Plat: 125.3 x10_4/uL
  RBC: 673.8 x10_4/ul
  Ret: 4.7%
  WBC: 87.1 x10_2/uL
  KIDNEY_L: 1.1 g
  KIDNEY_R: 1.2 g
  KIDNEY_TOTAL: 2.3 g
  LIVER: 11.9 g
  A/G: 0.9
  ALP: 1461.2 IU/L
  ALT: 55 IU/L
  AST: 74.2 IU/L
  BUN: 16.4 mg/dL
  CRE: 0.2 mg/dL
  Ca: 11 mg/dL
  Cl: 103.2 meq/L
  DBIL: 0.006 mg/dL
  GLC: 171.6 mg/dL
  IP: 8 mg/dL
  K: 4.3 meq/L
  LDH: 62 IU/L
  Na: 141 meq/L
  PL: 146 mg/dL
  RALB: 2.7 g/dL
  TBIL: 0.05 mg/dL
  TC: 72.6 mg/dL
  TG: 94 mg/dL
  TP: 5.7 g/dL
  gamma-GTP: 1 IU/L
[7]
  TERMINAL_BW: 307.6 g
  APTT: 16.8 s
  Bas: 0.2%
  Eos: 1%
  Fbg: 271 mg/dL
  Hb: 14.9 g/dL
  Ht: 44.3%
  Lym: 72.8%
  MCH: 20.1 pg
  MCHC: 33.6%
  MCV: 59.8 fL
  Mono: 2.2%
  Neu: 23%
  PT: 13.2 s
  Plat: 114.6 x10_4/uL
  RBC: 742 x10_4/ul
  Ret: 3.8%
  WBC: 103.9 x10_2/uL
  KIDNEY_L: 1.2 g
  KIDNEY_R: 1.2 g
  KIDNEY_TOTAL: 2.3 g
  LIVER: 12.6 g
  A/G: 0.9
  ALP: 1425.6 IU/L
  ALT: 41.8 IU/L
  AST: 68.2 IU/L
  BUN: 16.8 mg/dL
  CRE: 0.2 mg/dL
  Ca: 11 mg/dL
  Cl: 102.6 meq/L
  DBIL: 0.008 mg/dL
  GLC: 181 mg/dL
  IP: 7.9 mg/dL
  K: 3.9 meq/L
  LDH: 54 IU/L
  Na: 140.6 meq/L
  PL: 148.4 mg/dL
  RALB: 2.7 g/dL
  TBIL: 0.056 mg/dL
  TC: 80.8 mg/dL
  TG: 83.4 mg/dL
  TP: 5.9 g/dL
  gamma-GTP: 1 IU/L
[8]
  TERMINAL_BW: 370.8 g
  APTT: 17.8 s
  Bas: 0%
  Eos: 1.6%
  Fbg: 278.4 mg/dL
  Hb: 15.8 g/dL
  Ht: 45.5%
  Lym: 80%
  MCH: 19.3 pg
  MCHC: 34.7%
  MCV: 55.5 fL
  Mono: 2%
  Neu: 15%
  PT: 13.3 s
  Plat: 111.2 x10_4/uL
  RBC: 818.8 x10_4/ul
  Ret: 2.5%
  WBC: 133.5 x10_2/uL
  KIDNEY_L: 1.2 g
  KIDNEY_R: 1.3 g
  KIDNEY_TOTAL: 2.5 g
  LIVER: 13.4 g
  A/G: 0.8
  ALP: 1094.8 IU/L
  ALT: 42.6 IU/L
  AST: 70.4 IU/L
  BUN: 18 mg/dL
  CRE: 0.3 mg/dL
  Ca: 10.6 mg/dL
  Cl: 103 meq/L
  DBIL: 0.012 mg/dL
  GLC: 169 mg/dL
  IP: 7.2 mg/dL
  K: 3.9 meq/L
  LDH: 55.6 IU/L
  Na: 141.8 meq/L
  PL: 136.2 mg/dL
  RALB: 2.8 g/dL
  TBIL: 0.062 mg/dL
  TC: 66.2 mg/dL
  TG: 87.2 mg/dL
  TP: 6.3 g/dL
  gamma-GTP: 1 IU/L
